The values that follow are results of earlier work, collected in PMC10449632, “Structural basis for translation inhibition by the glycosylated drosocin peptide” (Nature Chemical Biology, 2023).

pIC50: −log10 of the molar value.

In the data set the test system is in vitro translation, E. coli PURExpress system, firefly luciferase (Fluc) mRNA. Particulars: using the same system; cited from earlier work. How it is done: Unmodified wild-type drosocin and Dro-3P have been reported to inhibit in vitro translation reactions[25],[26]; however, the naturally occurring glycosylated forms of drosocin have not been previously tested. To investigate this, we compared the effect of increasing concentrations (0–150 μM) of modified Dro1 and Dro2 with unmodified Dro, Dro-3P and Api137 using a cell-free in vitro translation system and firefly luciferase (Fluc) mRNA as a template (Fig. 1e), as we have used previously for assessing the activity of other PrAMPs[4],[6],[8],[9],[32],[33].

What is called pIC50 is the negative decadic logarithm of the IC50, by convention in mol/L. Take “Bac7: type I PrAMP of mammalian origin (RRIRPRPPRLPRPRPRPLPFPRPGPRPIPRPLPFPRPGPRPIPRPLPFPRPGPRPIPRP; Bactenecin 7; UniProt P19661 131-189, looked up)”: the negative-log IC50 (pIC50) is greater than 6.00.
